Assay results from patent US5747051A, “Skin care compositions containing an amide of a hydroxy fatty acid and a retinoid” (Elizabeth Arden Co., Division of Conopco, Inc., priority 1996, dated 1998).

Assays:
[1] = tested on: transglutaminase 1 (TG1) in human keratinocytes; assay: Transglutaminase 1 (TG1) ELISA assay of keratinocyte differentiation, normalised to DNA, Example 2; format: cell-based; details: for inhibiting keratinocyte TG1 level when used alone, in words: 2.5×10^-7 M retinol or 10^-6 M lactamide-DEA alone, compared with retinoic acid 2.5×10^-7 M
Method: Human keratinocytes, isolated from neonatal foreskin by trypsin treatment were grown in Dulbecco Modification Eagle (DME) Hams F12 (1:1) medium/10% fetal calf serum in the presence of irradiated 3T3 mouse fibroblasts for establishing dividing keratinocyte colonies. Cells were grown under the above condition until their second passage and kept frozen for future use. Frozen second passage keratinocytes were thawed and plated into the above medium and grown for five days before they were switched to a serum-free MCDB 153-based medium keratinocyte growth medium (KGM) from Clonetics Corporation, San Diego, Calif. containing 0.15 mM Ca, or keratinocyte serum-free media (KSFM) from GIBCO containing 0.09 mM Ca). On day 7, when the cells were 80-90% confluent, they were trypsinized and plated in the serum-free medium for the various experiments.
(§1) During the process of terminal differentiation in the epidermis, a 15 nm thick layer of protein, known as the cornified envelope (CE) is formed on the inner surface of the cell periphery. The CE is composed of numerous distinct proteins which have been cross-linked together by the formation of N ^ε -(γ-glutamyl) lysine isodipeptide bonds catalyzed by the action of at least two different transglutaminases (TGases) expressed in the epidermis. TGase I is expressed in abundance in the differentiated layers of the epidermis, especially the granular layer, but is absent in the undifferentiated basal epidermis. Thus TGase I is a useful marker of epidermal keratinocyte differentiation with high TGase I levels indicating a more differentiated state. An ELISA based TGase I assay, using a TGase I antibody, was used to assess the state of differentiation of the cultured keratinocytes in the examples that follow.
Keratinocytes (cultured as described above) were plated in 96 well plates at a density of 3,000 cells per well in 200 μl of cell culture media. After incubation for four days, the media was changed to media containing test compounds (six replicates per test). The cells were cultured for a further 72 hours after which time the media was aspirated and the plates stored at -70° C. After the plates were removed from the freezer, the cells were further freezed fractured by freezing and thawing and then washed 3× with PBS. The cells were incubated for one hour at room temperature (R/T) with TBS/5% BSA buffer. Cells were then incubated with 100 μl of monoclonal anti-human transglutaminase (IgG) mouse antibody (primary antibody) obtained from Biomedical Technologies Inc. diluted 1:2000 in TBS/1% BSA buffer for two hours at 37° C., and then rinsed six times with wash buffer (TBS/1% BSA/0.05% Tween-20). Cells were next incubated with 100 μl of Fab fragment, peroxidase conjugated anti-mouse IgG antibody (secondary antibody) from Amersham diluted 1:4,000 in wash buffer for two hours at 37° C. and then rinsed three times with wash buffer and three times with PBS. Cells were incubated with substrate solution (4 mg o-phenylene diamine and 3.3 μl 30% H2 O2 in 1O ml 0.1M citrate buffer, pH 5.0) for five minutes at R/T and in darkness (under aluminum foil). The reaction was stopped by the addition of 50 μl 4N H2SO4. The absorbance of samples was read at 492 nm in the plate reader. Out of the six replicates, four were treated with both antibodies, two were treated only with the secondary antibody (i.e., to determine the background binding of the enzyme conjugated antibody). Transglutaminase I levels were determined by subtracted background from the readings from each treatment and determining the mean s.d. for the replicates exposed to both antibodies.
The level of TGase-1 detected after treatment of the cells could be influenced by cell number, i.e., the greater the number of cells the greater the level of TGase-1 detected. The level of TGase-1 was normalized to DNA content of the cells in the same well thus eliminating variation due to differences in cell number. […]

[2] = tested on: Transglutaminase (TGase I) in human keratinocytes; assay: Transglutaminase (TGase I ELISA) assay of keratinocyte differentiation, normalized to DNA, Example 1; format: cell-based; details: 2.5×10^-7 M, 2.5×10^-8 M and 2.5×10^-9 M
Method: Human keratinocytes, isolated from neonatal foreskin by trypsin treatment were grown in Dulbecco Modification Eagle (DME) Hams F12 (1:1) medium/10% fetal calf serum in the presence of irradiated 3T3 mouse fibroblasts for establishing dividing keratinocyte colonies. Cells were grown under the above condition until their second passage and kept frozen for future use. […] On day 7, when the cells were 80-90% confluent, they were trypsinized and plated in the serum-free medium for the various experiments.
as §1, with “Thus TGase I is a useful marker of epidermal keratinocyte differentiation with high TGase I levels indicating a more differentiated state. An ELISA based TGase I assay, using a TGase I antibody, was used to assess the state of differentiation of the cultured keratinocytes in the examples that follow.” left out
Keratinocytes (cultured as described above) were plated in 96 well plates at a density of 3,000 cells per well in 200 μl media. […] The absorbance of samples was read at 492 nm in the plate reader. […] TGase levels were determined by subtracting background from the readings from each treatment and determining mean ±s.d. for the replicates exposed to both Ab.
The level of TGase-1 was normalized to DNA content of the cells in the same well thus eliminating variation due to differences in cell number. DNA quantitation is a particularly useful indicator of cell number, including keratinocyte cell number, because each cell has to all intents and purposes an identical genome and therefore an identical quantity of DNA The total DNA content of a well of cells therefore is directly proportional to the cell number in that well. Quantitation of DNA was used to normalize the TGase data to cell number. […]

[3] = Homo sapiens, Keratinocyte, Table 2A, 2.5 × 10^-8 M, 72 hour treatment, n = 3, read-out: TGase/DNA (% control)
[4] = Homo sapiens, Keratinocyte, Table 2B, 2.5 × 10^-7 M, 72 hour treatment, n = 3, read-out: TGase/DNA (% control)
[5] = Table 2A, 2.5 × 10^-8 M, 72 hour treatment, n = 3, control 18.42 ± 3.88
[6] = Table 2B, 2.5 × 10^-7 M, 72 hour treatment, n = 3, control 64.11 ± 2.91

Structure (SMILES) | inhibitory effect on keratinocyte TG1 level when used alone, in words ([1]; 10^-8 M, amide alone) | activity at 0.01 µM ([1]; Homo sapiens, Keratinocyte, Table 2A, 10^-8 M, 72 hour treatment, n = 3, read-out: TGase/DNA (% control)) | mean TGase/DNA × 10^5 ± s.d ([1]; Table 2A, 10^-8 M, 72 hour treatment, n = 3, control 18.42 ± 3.88) | decrease in transglutaminase level, dose dependence [2] | effect on keratinocyte differentiation (transglutaminase level), in words ([2]; vs ethanol control and corresponding retinol treatments) | effect on keratinocyte differentiation, in words (summary of Examples 1 and 2) [1] | activity at 0.025 µM [1, 3] | activity at 0.25 µM [1, 4] | mean TGase/DNA × 10^5 ± s.d [1, 5] | mean TGase/DNA × 10^5 ± s.d [1, 6] | inhibiting keratinocyte TG1 level when used alone, in words [1] | activity at 1 µM ([1]; Homo sapiens, Keratinocyte, Table 2B, 10^-6 M, 72 hour treatment, n = 3, read-out: TGase/DNA (% control)) | mean TGase/DNA × 10^5 ± s.d ([1]; Table 2B, 10^-6 M, 72 hour treatment, n = 3, control 64.11 ± 2.91)
CCCCCCCCCCC(O)CC(N)=O (stereo not drawn) [C13-β-hydroxy-acid amide, C13 β-hydroxy acid amide] | no inhibitory effect | 101% | 18.53 ± 4.58 |  |  |  |  |  |  |  |  |  | 
CC1=C(/C=C/C(C)=C/C=C/C(C)=C/C(=O)O)C(C)(C)CCC1 [Retinoic acid, retinoic acid] |  |  |  | dose dependent | decreased keratinocyte differentiation over both the ethanol control and did so to a significantly greater extent than each of the corresponding 2.5×10^-7 M, 2.5×10^-8 M and 2.5×10^-9 M retinol treatments | in a dose dependent manner, decreased keratinocyte differentiation | 6% | 73% | 1.05 ± 1.05 | 46.71 ± 7.83 |  |  | 
CC1=C(/C=C/C(C)=C/C=C/C(C)=C/CO)C(C)(C)CCC1 [Retinol, retinol] |  |  |  | dose dependent |  | completely ineffective at decreasing keratinocyte differentiation | 79% | 91% | 14.62 ± 2.99 | 58.47 ± 6.25 | less effective |  | 
CC(O)C(=O)NCCO (centres unmarked) [lactamide-MEA, lactamide monoethanolamide] |  |  |  |  |  |  |  |  |  |  | less effective | 86% | 55.22 ± 2.43
